Assay [1] concerns the target T1, DNA polymerase catalytic subunit (Varicella-zoster virus (strain Dumas), UniProt P09252).
T1 sequence (P09252 whole entry): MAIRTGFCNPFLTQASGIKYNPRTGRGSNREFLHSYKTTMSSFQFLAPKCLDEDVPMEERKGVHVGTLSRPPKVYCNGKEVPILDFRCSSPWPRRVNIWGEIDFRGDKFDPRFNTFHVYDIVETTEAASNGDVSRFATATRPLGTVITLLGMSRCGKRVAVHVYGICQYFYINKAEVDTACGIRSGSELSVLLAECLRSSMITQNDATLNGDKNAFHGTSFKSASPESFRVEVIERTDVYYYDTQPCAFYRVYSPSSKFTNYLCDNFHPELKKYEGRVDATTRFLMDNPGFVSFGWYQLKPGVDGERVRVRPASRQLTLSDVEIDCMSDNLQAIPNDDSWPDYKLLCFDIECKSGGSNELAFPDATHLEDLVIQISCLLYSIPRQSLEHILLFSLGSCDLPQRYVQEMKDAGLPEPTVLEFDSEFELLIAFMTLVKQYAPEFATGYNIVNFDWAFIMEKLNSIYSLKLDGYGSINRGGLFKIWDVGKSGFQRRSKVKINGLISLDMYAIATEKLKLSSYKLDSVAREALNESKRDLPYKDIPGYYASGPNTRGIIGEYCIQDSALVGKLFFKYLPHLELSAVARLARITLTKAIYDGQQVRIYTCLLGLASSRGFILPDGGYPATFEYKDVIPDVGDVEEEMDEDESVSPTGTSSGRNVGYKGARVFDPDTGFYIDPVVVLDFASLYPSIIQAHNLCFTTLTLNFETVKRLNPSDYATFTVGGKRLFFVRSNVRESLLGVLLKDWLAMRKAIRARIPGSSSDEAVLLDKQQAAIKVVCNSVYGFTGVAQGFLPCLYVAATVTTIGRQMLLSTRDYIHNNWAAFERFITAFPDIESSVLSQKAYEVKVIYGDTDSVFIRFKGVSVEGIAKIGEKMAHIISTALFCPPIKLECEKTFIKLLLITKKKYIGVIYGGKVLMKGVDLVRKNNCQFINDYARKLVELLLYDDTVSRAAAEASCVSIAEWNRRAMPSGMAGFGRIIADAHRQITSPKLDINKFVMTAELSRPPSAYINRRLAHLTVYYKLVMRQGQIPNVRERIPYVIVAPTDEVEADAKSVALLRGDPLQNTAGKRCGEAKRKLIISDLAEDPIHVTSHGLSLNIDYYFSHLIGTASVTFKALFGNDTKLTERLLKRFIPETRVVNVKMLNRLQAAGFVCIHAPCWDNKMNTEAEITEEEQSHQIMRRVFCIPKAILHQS
Nature of the assay: CMV and VZV Polymerase Assays. As to the method:
(§1) Human cytomegalovirus and varicella zoster virus DNA polymerases were expressed via baculovirus vector in SF21 cells and purified. Heterodimeric nucleic acid substrate used in the herpesvirus polymerase reactions were generated by annealing a 59-mer template to a 17-mer digoxigenin-labeled primer. Polymerase (HCMV final concentration of 0.2 nM; VZV final concentration of 0.4 nM) was combined with an inhibitor compound or DMSO in assay buffer (10 mM HEPES, pH 7.5, 25 mM KCl, 25 mM NaCl, 5 mM MgCl2, 5% glycerol, 0.67 mg/ml bovine serum albumin, and 1 mM tris(2-carboxyethyl)phosphine)), and this mixture was pre-incubated for 30 minutes at room temperature in 384-well microtiter plates. The polymerization reaction was initiated by the addition of template/primer substrate (final concentration: 1.6 nM), and dNTPs (final concentration: 24 nM dCTP, 24 nMdGTP, 16 nM dATP, 16 nM dTTP, and 0.8 nM biotin-dUTP). After a 60 minute incubation period at 37° C., the reactions were terminated using quench buffer (25 mM HEPES pH 7.5, 100 mM NaCl, 0.25% Tween-20, 12 mM EDTA, and 1 mg/ml bovine serum albumin). Incorporation of biotinylated UTP was detected with 2.5-5 μg/mL anti-DIG AlphaLISA acceptor beads and 5-10 μg/mL streptavidin AlphaLISA donor beads (PerkinElmer). […]

The target of assay [2] is T2, DNA polymerase catalytic subunit (Human cytomegalovirus (strain AD169), UniProt P08546).
T2 sequence (P08546 whole entry): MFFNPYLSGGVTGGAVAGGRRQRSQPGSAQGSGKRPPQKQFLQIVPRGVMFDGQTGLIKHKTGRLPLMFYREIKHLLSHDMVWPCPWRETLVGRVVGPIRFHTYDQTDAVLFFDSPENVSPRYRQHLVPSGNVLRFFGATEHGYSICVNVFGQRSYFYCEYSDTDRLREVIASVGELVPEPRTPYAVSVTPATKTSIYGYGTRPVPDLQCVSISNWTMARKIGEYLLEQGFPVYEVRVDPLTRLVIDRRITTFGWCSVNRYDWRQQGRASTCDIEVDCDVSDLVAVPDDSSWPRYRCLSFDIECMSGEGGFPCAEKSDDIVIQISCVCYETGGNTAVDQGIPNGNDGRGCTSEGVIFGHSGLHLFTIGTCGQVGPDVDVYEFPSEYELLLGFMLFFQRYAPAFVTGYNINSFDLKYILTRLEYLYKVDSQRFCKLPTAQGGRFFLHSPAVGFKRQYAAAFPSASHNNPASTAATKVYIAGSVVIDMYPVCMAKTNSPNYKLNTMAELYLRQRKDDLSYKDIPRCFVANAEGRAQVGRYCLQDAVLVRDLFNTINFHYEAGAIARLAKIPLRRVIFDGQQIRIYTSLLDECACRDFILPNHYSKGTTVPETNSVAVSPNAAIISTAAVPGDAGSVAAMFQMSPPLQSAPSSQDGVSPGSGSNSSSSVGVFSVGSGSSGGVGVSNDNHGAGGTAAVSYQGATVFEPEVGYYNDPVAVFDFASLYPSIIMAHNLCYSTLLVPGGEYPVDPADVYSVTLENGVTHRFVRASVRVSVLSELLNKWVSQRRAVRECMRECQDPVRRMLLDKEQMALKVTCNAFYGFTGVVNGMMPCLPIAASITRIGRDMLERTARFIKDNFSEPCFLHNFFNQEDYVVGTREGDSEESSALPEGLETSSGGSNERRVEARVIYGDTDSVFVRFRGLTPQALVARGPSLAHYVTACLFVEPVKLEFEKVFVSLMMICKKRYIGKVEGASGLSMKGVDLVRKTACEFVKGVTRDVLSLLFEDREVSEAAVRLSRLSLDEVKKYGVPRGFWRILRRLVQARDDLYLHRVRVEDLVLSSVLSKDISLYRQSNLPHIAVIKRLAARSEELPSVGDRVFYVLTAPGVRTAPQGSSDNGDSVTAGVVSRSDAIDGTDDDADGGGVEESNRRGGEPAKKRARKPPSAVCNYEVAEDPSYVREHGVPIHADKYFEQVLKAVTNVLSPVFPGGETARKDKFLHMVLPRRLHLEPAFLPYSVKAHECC
The assay can be described thus: CMV and VZV Polymerase Assays. As to the method:
as §1

This is an account of results in BindingDB's records for patent US12497405 (Merck Sharp & Dohme, 2025).

Molecules are shown by their SMILES.

The term IC50 denotes the concentration that inhibits the measured activity by half.

On to `O=C1OC[C@@H]2C[C@@H](Oc3cc4c(=O)n(Cc5ccc(Cl)cc5)cnc4nc3-c3cnco3)CCN12` [US12497405, Compound 37], for which the IC50 in assay [1] was determined as 220 pM; in assay [2] it was 1100 pM.
